The test system of assay [1] is lipid of rat liver microsome. Description: Inhibition activity against hyperoxidation of lipid of rat liver microsome (thiobarbituric acid method). The class given is biochemical. The conditions noted are these: for Inhibition ratio of lipid peroxidation (%): rat liver microsome, NADPH/ADP/FeCl₃, 37°C; for antioxidant activity (result in words on Table 2): summary of Table 2. Here is the method:
[Inhibition activity against hyperoxidation of lipid of rat liver microsome]
A plurality of male SD rats (weighing […]) were prepared. Each rat was anesthetized with pentobarbital, and then subjected to celiotomy. A cannula was introduced into the portal vein of each rat, the abdominal large veins were sectioned, and 500 ml of cold 0.9 % NaCl was injected into the portal veins.
Livers were extracted from individual rats, and the livers were cut to pieces in 1.15 % KCl and homogenized with ice cooling. Then, 1.15 % KCl was further added to obtain a 30 % liver homogenized solution.
The above homogenized solution was centrifugally separated at 8,000 g (g: gravitation acceleration) for 10 minutes, and the resultant supernatant was recovered.
The so-prepared suspension was stored at -20°C before a test described in the following (2), and it was used within 1 week after the preparation.
As test compounds, the hydroquinone derivatives obtained in Preparation Examples 1 to 12, a known hydroquinone derivative which was a compound of the formula (I) in which R¹ was methyl (hereinafter referred to as HQ1) and BHT were respectively tested on their inhibition activities against hyperoxidation of lipid in the following manner.
First, 0.1 ml of the liver microsome suspension obtained in the above (1), 0.1 ml of NADPH (final concentration 2 mM), 0.1 ml of ADP (final concentration 10 mM) and 0.1 ml of a solution of one of the test compounds whose concentration was adjusted as shown in Table 2 with 10 % DMF were added to a tris-HCl buffer (167 mM KCl, 74 mM TRIS, pH 7.4), and the resultant mixture was warmed at 37°C for 5 minutes. Then, 0.1 ml of FeCl₃ (final concentration 0.1 mM) was added, and the mixture was warmed at 37°C for 20 minutes.
The resultant reaction mixture was cooled with ice. Then, 0.2 ml of 8.1 % SDS, 1.5 ml of an acetic acid buffer (prepared by adjusting 20 % acetic acid containing 0.27 mM HCl to pH 3.5 with 10N NaOH) and 1.5 ml of 0.8 % thiobarbituric acid were added to the cooled reaction mixture, and the resultant mixture was warmed over a boiling water bath for 20 minutes. After the warming, the reaction mixture was cooled with ice, and 4 ml of an n-BuOH/pyridine mixed solution [n-BuOH:pyridine = 15:1 (volume ratio)] was added to the cooled reaction mixture. The mixture was vigorously stirred.
The reaction mixture was centrifugally separated at 2,000 rpm for 10 minutes, and the resultant supernatant was measured for an absorbance at 532 nm to determine a thiobarbituric acid reaction amount. And, on the basis of a calibration curve of […] (MDA) amount prepared by using 1,1,3,3-tetramethoxypropane, a peroxidized lipid amount was determined as an amount of formed MDA.
In Control, the solution of the test compound in 10 % DMF was replaced with 0.1 ml of a 10 % DMF solution, and the above procedures were repeated to determine a peroxidized lipid amount. In Blank, each of 0.1 ml of NDAPH, 0.1 ml of ADP and 0.1 ml of FeCl₃ were replaced with 0.1 ml of water, the solution of the test compound in 10 % DMF was replaced with 0.1 ml of a 10 % DMF solution, and the above procedures were repeated to determine a peroxidized lipid amount.
The inhibition ratio of the lipid peroxidation reaction was calculated on the basis of the following equation. Inhibition ratio (%) =[1-(OD₁-OD₃)/(OD₂-OD₃)] x 100 [formula] OD₁: Absorbance when test compound is added. OD₂: Absorbance of Control OD₃: Absorbance of Blank
(In general: Liver microsomes are vesicles of endoplasmic reticulum, rich in cytochrome P450 enzymes.)

A further assay has as its system Salmonella TA 98. Description: Antimutagenic activity test on mutagenesis of heterocyclic amine to Salmonellae (preincubation Ames test with S9 mix). The conditions noted are these: mutagen IQ 0.005 µg; test compound 20.0 µg. The class given is cell-based. The protocol: Compounds of the present invention were tested on their antimutagenic activity to heterocyclic amines of Glu-P-1·HCl, Trp-P-1 acetate and IQ by a preincubation method-applied Ames test according to the method of Diane et al (Diane F. Birt, et al., Carcinogenesis, Vol. 7, No. 6, 959-963, 1986).
That is, S9 mix (0.5 ml), 0.1 ml of a Salmonella TA 98 medium, a compound of the present invention dissolved in DMSO and 0.1 ml of one of the above mutagens were charged into a test tube, and cultured at 37°C for 20 minutes with shaking. Then, 2 ml of soft agar was added to, and mixed with, the contents in the test tube. The resultant mixture was spread over a minimal glucose agar medium, and cultured at 37°C for 48 hours, and the number of reverse mutation colonies. Two or three plates were prepared each dosage, and the test results were compared with the test result of a negative control group to which DMSO alone was added and the test result of a positive control group to which the corresponding mutagen alone was added. […]

Setting [2] is: test compound concentration 10⁻⁶M.
The mark [3] stands for this setting: test compound concentration 10⁻⁵M.

Regarding “1-butyl-2,3,5-trimethylhydroquinone [Preparation Example 3]”, the “Inhibition ratio of lipid peroxidation (%)” value (“Inhibition ratio … (%)” below) in assay [1] (setting [2]) came out at 75.9%. The Mutagenesis inhibition ratio in the assay with Salmonella TA 98 was determined as 85.
Regarding “1-decylhydroquinone [Preparation Example 2]”, the “antioxidant activity (result in words on Table 2)” value in assay [1] was “excellent antioxidant activity over the known hydroquinone derivative HQ1”. Further, the “Inhibition ratio … (%)” value in assay [1] (setting [3]) was 79.5%; in assay [1] (setting [2]), 1.8%.
“1-octylhydroquinone [Preparation Example 1]”: the “antioxidant activity (result in words on Table 2)” value in assay [1] is recorded as “excellent antioxidant activity over the known hydroquinone derivative HQ1”. The “Inhibition ratio … (%)” value is on record as 99.7% in assay [1] (setting [3]) and 9.8% in assay [1] (setting [2]).
“4-hexyl-2,3,5-trimethylhydroquinone [Preparation Example 8]”: the “Inhibition ratio … (%)” value is recorded as 98.3% in assay [1] (setting [3]) and 40% in assay [1] (setting [2]).
